Data published in ChEMBL document CHEMBL1629509, “Design, synthesis and inhibitory activity against Mycobacterium tuberculosis thymidine monophosphate kinase of acyclic nucleoside analogues with a distal imidazoquinolinone” (Eur J Med Chem, 2010).
Calls of active or inactive are those of the source. The rule behind the calls is not given here.

test system: Mycobacterium tuberculosis variant bovis BCG; assay: Antimycobacterial activity against Mycobacterium bovis BCG Pasteur assessed as growth inhibition at 160 ug/ml by resazurin microtiter plate assay; format: functional, organism-based

Question: With `Cc1cn(C/C=C/CN2c3cccc4c3N(CCC4)S2(=O)=O)c(=O)[nH]c1=O` as the compound, how does the Activity read?
Answer: inactive

Question: How did the Activity turn out when `Cc1cn(C/C=C/Cn2c(=O)n3c4c(cccc42)CC(N)C3)c(=O)[nH]c1=O` (configuration not stated) was run?
Answer: inactive

Question: Which Activity does the source give for `CC(=O)Nc1cc2c3c(c1)n(C/C=C/Cn1cc(C)c(=O)[nH]c1=O)c(=O)n3CCC2` here?
Answer: inactive

Question: `CC(=O)NC1Cc2cccc3c2n(c(=O)n3C/C=C/Cn2cc(C)c(=O)[nH]c2=O)C1` (configuration not stated) was tested. Which Activity did it give?
Answer: inactive

Question: Which Activity does the source give for `Cc1cn(C/C=C/Cn2c(=O)n3c4c(cccc42)CCC3)c(=O)[nH]c1=O` here?
Answer: inactive

Question: For `Cc1cn(C/C=C/Cn2c(=O)n3c4c(cc(N)cc42)CCC3)c(=O)[nH]c1=O`, which Activity is on record?
Answer: inactive

Question: How did the Activity turn out when `O=c1[nH]c(=O)n(C/C=C/CN2c3cccc4c3N(CCC4)S2(=O)=O)cc1Br` was run?
Answer: inactive
